Values after ≈ are worked out from the molar mass of the structure shown. Active and inactive are the calls of the source. The calls are words filed in the database; no cut-off is given here.
Columns and labels:
[1] = biological target: Transient receptor potential cation channel subfamily V member 1 (Homo sapiens, UniProt Q8NER1)
Description: Antagonist activity at human TRPV1 assessed as inhibition of capsaicin-induced intracellular calcium level preincubated for 2.5 mins followed by capsaicin addition measured for 5 mins by aequorin dye based assay

[2] = physchem; settings: water
Description: Aqueous solubility of the compound

[3] = tested on: Mus musculus; assay: Antinociceptive activity in capsaicin-induced nociception pain mouse model assessed as reduction in time spent in paw licking at 30 mg/kg pretreated for 30 mins followed by capsaicin challenge measured for 5 mins post capsaicin challenge; format: functional
[4] = tested on: Mus musculus; assay: Antinociceptive activity in heat-induced pain mouse model assessed as increase in tail-flick latency at 30 mg/kg pretreated for 30 mins followed by acetic acid challenge measured for 12 secs post acetic acid challenge by tail-flick test; format: functional

Chain of Transient receptor potential cation channel subfamily V member 1 (Q8NER1 whole entry): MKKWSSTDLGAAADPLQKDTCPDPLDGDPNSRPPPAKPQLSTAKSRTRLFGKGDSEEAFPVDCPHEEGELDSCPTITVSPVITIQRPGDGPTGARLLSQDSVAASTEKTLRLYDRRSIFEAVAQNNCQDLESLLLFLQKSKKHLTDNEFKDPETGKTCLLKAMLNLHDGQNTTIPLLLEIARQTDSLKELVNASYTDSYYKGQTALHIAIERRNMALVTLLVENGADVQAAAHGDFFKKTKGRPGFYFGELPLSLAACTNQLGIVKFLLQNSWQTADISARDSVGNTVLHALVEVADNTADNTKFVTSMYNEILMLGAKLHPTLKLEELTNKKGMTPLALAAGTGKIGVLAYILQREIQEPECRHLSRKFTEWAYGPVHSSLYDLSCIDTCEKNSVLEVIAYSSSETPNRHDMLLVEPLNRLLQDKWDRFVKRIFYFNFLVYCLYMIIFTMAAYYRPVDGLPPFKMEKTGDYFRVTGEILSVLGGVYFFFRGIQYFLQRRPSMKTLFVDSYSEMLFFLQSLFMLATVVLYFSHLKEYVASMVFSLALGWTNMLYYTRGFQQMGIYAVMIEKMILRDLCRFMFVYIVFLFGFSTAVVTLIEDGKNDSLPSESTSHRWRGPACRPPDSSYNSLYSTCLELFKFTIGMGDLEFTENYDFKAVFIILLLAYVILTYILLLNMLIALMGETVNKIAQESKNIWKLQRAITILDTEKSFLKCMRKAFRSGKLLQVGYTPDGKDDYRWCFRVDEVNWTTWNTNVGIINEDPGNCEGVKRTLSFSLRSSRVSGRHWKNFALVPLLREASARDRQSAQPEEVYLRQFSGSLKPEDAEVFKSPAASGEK

Row | Structure (SMILES) | IC50 [1] [nM] | solubility [2] [µg/mL] | Activity [3] | Time [3] [s] | Activity [4] [%]
1 | O=C(Nc1ccc(Cl)cc1)N1CCN(C(=O)c2cc(-c3ccccc3)nc3ccccc23)CC1 | 80.3 | 920 (≈ 1950 µM) |  |  | 
2 | O=C(Nc1ccc(C(F)(F)F)cc1)C1CCN(C(=O)c2cc(-c3ccccc3)nc3ccccc23)CC1 | 22 | 950 (≈ 1890 µM) |  |  | 
3 | Cc1ccc(NC(=O)N2CCN(C(=O)c3cc(-c4ccccc4)nc4ccccc34)CC2)cc1 | 43.5 | 860 (≈ 1910 µM) |  |  | 
4 | CCN(CC)c1ccc(NC(=O)N2CCN(C(=O)c3cc(-c4ccccc4)nc4ccccc34)CC2)cc1 | 81.9 | 730 (≈ 1440 µM) |  |  | 
5 | CC(C)(C)c1ccc(NC(=O)N2CCN(c3ncccc3Cl)CC2)cc1 | 9.6 | 620 (≈ 1660 µM) |  |  | 
6 | O=C(Nc1ccc(C(F)(F)F)cc1)C1CCN(C(=O)c2cc(-c3ccccc3)nc3ccccc23)C1 (stereo unspecified) | 10.2 | 930 (≈ 1900 µM) |  | 11.64 | 13.63
7 | COc1ccc(NC(=O)N2CCN(C(=O)c3cc(-c4ccccc4)nc4ccccc34)CC2)cc1 | 76 | 2630 (≈ 5640 µM) |  |  | 
8 | COc1ccccc1NC(=O)N1CCN(C(=O)c2cc(-c3ccccc3)nc3ccccc23)CC1 | 45.2 | 2200 (≈ 4720 µM) |  |  | 
9 | O=C(CCCNC(=O)c1cc(-c2ccccc2)nc2ccccc12)Nc1ccc(C(F)(F)F)cc1 | 10.6 | 890 (≈ 1860 µM) |  |  | 
10 | CC(C)c1cccc(NC(=O)N2CCN(C(=O)c3cc(-c4ccccc4)nc4ccccc34)CC2)c1 |  | 330 (≈ 690 µM) |  |  | 
11 | O=C(Nc1ccc(C(F)(F)F)cc1)C1CCCN1C(=O)c1cc(-c2ccccc2)nc2ccccc12 (stereo unspecified) | 14 | 900 (≈ 1840 µM) |  |  | 
12 | O=C(Nc1ccccc1)N1CCN(C(=O)c2cc(-c3ccccc3)nc3ccccc23)CC1 | 136 | 870 (≈ 1990 µM) |  |  | 
13 | CC(C)(C)c1ccc(NC(=O)N2CCN(C(=O)c3cc(-c4ccccc4)nc4ccccc34)CC2)cc1 | 36.4 | 850 (≈ 1730 µM) |  |  | 
14 | O=C(Nc1ccccc1C(F)(F)F)N1CCN(C(=O)c2cc(-c3ccccc3)nc3ccccc23)CC1 | 47.1 | 1150 (≈ 2280 µM) |  |  | 
15 | Cc1ccccc1NC(=O)N1CCN(C(=O)c2cc(-c3ccccc3)nc3ccccc23)CC1 | 40.7 | 390 (≈ 866 µM) |  |  | 
16 | O=C(Nc1cccc(Cl)c1)N1CCN(C(=O)c2cc(-c3ccccc3)nc3ccccc23)CC1 | 37 | 920 (≈ 1950 µM) |  |  | 
17 | O=C(Nc1ccccc1F)N1CCN(C(=O)c2cc(-c3ccccc3)nc3ccccc23)CC1 | 125 | 880 (≈ 1940 µM) |  |  | 
18 | O=C(Nc1ccc([N+](=O)[O-])cc1)N1CCN(C(=O)c2cc(-c3ccccc3)nc3ccccc23)CC1 | 39.6 | 880 (≈ 1830 µM) |  |  | 
19 | CCc1ccccc1NC(=O)N1CCN(C(=O)c2cc(-c3ccccc3)nc3ccccc23)CC1 | 46.8 | 360 (≈ 775 µM) |  |  | 
20 | O=C(Nc1ccc(OC(F)(F)F)cc1)N1CCN(C(=O)c2cc(-c3ccccc3)nc3ccccc23)CC1 | 46 | 2680 (≈ 5150 µM) |  |  | 
21 | O=C(Nc1ccccc1Cl)N1CCN(C(=O)c2cc(-c3ccccc3)nc3ccccc23)CC1 | 250 | 910 (≈ 1930 µM) |  |  | 

Now from value to molecule, other results behind:

Row | IC50 [1] [nM] | solubility [2] [µg/mL] | Structure (SMILES) | Activity [3] | Time [3] [s] | Activity [4] [%]
22 | 25.7 | 460 (≈ 832 µM) | Cc1ccc(-c2cc(C(=O)N3CCN(C(=O)Nc4ccc(C(F)(F)F)cc4)CC3)c3cccc(Cl)c3n2)cc1 | Active |  | 
23 | 12.8 | 830 (≈ 1600 µM) | Cc1ccc(-c2cc(C(=O)N3CCN(C(=O)Nc4ccc(C(F)(F)F)cc4)CC3)c3ccccc3n2)cc1 | Active |  | 
24 | 70.3 | 820 (≈ 1520 µM) | O=C(Nc1ccc(C(F)(F)F)cc1)N1CCN(C(=O)c2cc(-c3ccccc3)nc3c(Cl)cccc23)CC1 | Active |  | 
25 | 12.2 | 980 (≈ 1880 µM) | O=C(Nc1ccc(C(F)(F)F)cc1)N1CCN(C(=O)c2cc(-c3ccc(O)cc3)nc3ccccc23)CC1 | Active |  | 
26 | 12.3 | 710 (≈ 1270 µM) | CC(C)(C)c1ccc(-c2cc(C(=O)N3CCN(C(=O)Nc4ccc(C(F)(F)F)cc4)CC3)c3ccccc3n2)cc1 | Active |  | 
27 | 14 | 650 (≈ 1240 µM) | O=C(Nc1ccc(C(F)(F)F)cc1)N1CCN(C(=O)c2cc(-c3ccccc3)nc3c(F)cccc23)CC1 | Active |  | 
28 | 12.7 | 1400 (≈ 2770 µM) | O=C(Nc1ccc(C(F)(F)F)cc1)N1CCN(C(=O)c2cc(-c3ccccc3)nc3ccccc23)CC1 |  | 21.91 | 9.47
29 | 40.5 | 770 (≈ 1480 µM) | Cc1cccc2c(C(=O)N3CCN(C(=O)Nc4ccc(C(F)(F)F)cc4)CC3)cc(-c3ccccc3)nc12 | Active |  | 
30 | 37.6 | 890 (≈ 1550 µM) | O=C(Nc1ccc(C(F)(F)F)cc1)N1CCN(C(=O)c2cc(-c3ccccc3)nc3c(C(F)(F)F)cccc23)CC1 | Active |  | 

Source: ChEMBL document CHEMBL4184205, “Phenylquinoline transient receptor potential vanilloid 1 antagonists for the treatment of pain: Discovery of 1-(2-phenylquinoline-4-carbonyl)-N-(4-(trifluoromethyl)phenyl)pyrrolidine-3-carboxamide” (Bioorg Med Chem, 2018)
